Measurements: patent publication US8952150B2, “Prostaglandin transporter inhibitors and uses thereof” (Albert Einstein College of Medicine of Yeshiva University, priority 2009, dated 2015)

Target: rat PGT (Rattus norvegicus (Rat), UniProt Q00910)
Experiment: [3H]PGE2 uptake inhibition in MDCK cells stably transfected with rat PGT (percent inhibition and IC50)
Format: cell-based
Settings: for Inh (% of Ctl) 0.1 μM: 0.1 μM compound; for Inh (% of Ctl) 0.1 μM / Inh (% of Ctl) 0.5 μM / Inh (% of Ctl) 2.5 μM / Inh (% of Ctl) 5 μM / Inh (% of Ctl) 1 μM / Inh (% of Ctl) 10 μM: inhibition of [3H]PGE2 uptake; for Inh (% of Ctl) 0.5 μM: 0.5 μM compound; for Inh (% of Ctl) 2.5 μM: 2.5 μM compound; for Inh (% of Ctl) 5 μM: 5 μM compound; for IC50: [3H]PGE2 uptake, MDCK cells stably transfected with rat PGT; for Inh (% of Ctl) 1 μM: 1 μM compound; for Inh (% of Ctl) 10 μM: 10 μM compound
Summary of the method: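 Rat PGT-transfected MDCK cells, on day 4 after seeding, took up [3H]PGE2 in Waymouth buffer at room temperature, with compound (EtOH stock diluted in buffer) added immediately before tracer. Intracellular radioactivity counted after lysis; percent inhibition versus vehicle, IC50 by fitting y=m1−m1*(m0/(m2+m0)).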

SMILES | Inh (% of Ctl) 0.1 μM | Inh (% of Ctl) 0.5 μM | Inh (% of Ctl) 2.5 μM | Inh (% of Ctl) 5 μM | IC50 [µM] | Inh (% of Ctl) 1 μM | Inh (% of Ctl) 10 μM
O=C(NCCOCCOCCNc1nc(Nc2ccc(O)cc2)nc(Nc2ccc(C(=O)NCc3cccc(F)c3)cc2)n1)c1ccccc1 [compound 105] | 67.9 % of Ctl | 64.6 % of Ctl | 81 % of Ctl | 92.45 % of Ctl | 0.0475 |  | 
O=C(O)c1ccc(CNc2nc(NCCOCCOCCNC(=O)c3ccccc3)nc(Nc3ccc(C(=O)NCc4ccccc4)cc3)n2)cc1 [compound 121] | 1.0 % of Ctl | 28.8 % of Ctl |  |  |  |  | 
NS(=O)(=O)c1ccc(Nc2nc(NCCOCCOCCNC(=O)c3ccccc3)nc(Nc3ccc(O)cc3)n2)cc1 [compound 46] |  |  |  |  |  | 4.1 % of Ctl | 32.4 % of Ctl
O=C(O)Cc1ccc(Nc2nc(NCCOCCOCCNC(=O)c3ccccc3)nc(Nc3ccc(C(=O)NCc4ccccc4)cc3)n2)cc1 [compound 125] | 3.2 % of Ctl | 24.3 % of Ctl |  |  |  |  | 
O=C(NCCOCCOCCNc1nc(Nc2ccccc2)nc(Nc2ccc(O)cc2)n1)c1ccncc1 [compound 29] |  |  |  |  |  | 15.9 % of Ctl | 49.6 % of Ctl
CCCCCCNc1nc(Nc2ccc(O)cc2)nc(Nc2ccc(C(=O)NCc3ccccc3)cc2)n1 [compound 120] | 11.2 % of Ctl | 29.1 % of Ctl |  |  |  |  | 
O=C(NCCOCCOCCNc1nc(Nc2ccc(O)cc2)nc(Nc2ccc(C(=O)NCc3ccc4[nH]ccc4c3)cc2)n1)c1ccccc1 [compound 94] |  | 36.0 % of Ctl | 66.7 % of Ctl | 76.1 % of Ctl |  |  | 
CC(C)(C)NC(=O)c1ccc(Nc2nc(NCCOCCOCCNC(=O)c3ccccc3)nc(Nc3ccc(O)cc3)n2)cc1 [compound 16] |  | 11.8 % of Ctl |  | 44.8 % of Ctl | 9.77 |  | 
O=C(NCCOCCOCCNc1nc(Nc2ccc(O)cc2)nc(Nc2ccc(C(=O)NCc3cccc(F)c3F)cc2)n1)c1ccccc1 [compound 126] | 24.0 % of Ctl | 56.3 % of Ctl |  |  |  | 70.0 % of Ctl | 
O=C(NCCCCCCCNc1nc(Nc2ccccc2)nc(Nc2ccc(O)cc2)n1)c1ccccc1 [compound 63] |  |  |  |  |  | 11.0 % of Ctl | 44.1 % of Ctl
COc1cccc(CNC(=O)c2ccc(Nc3nc(NCCOCCOCCNC(=O)c4ccccc4)nc(Nc4ccc(O)cc4)n3)cc2)c1 [compound 88] | 61.8 % of Ctl | 67.6 % of Ctl | 82.6 % of Ctl | 88.2 % of Ctl | 0.82 |  | 
O=C(NCCOCCOCCNc1nc(Nc2ccccc2)nc(Nc2ccc(O)cc2)n1)c1ccccc1C(F)(F)F [compound 72] |  |  |  | 66.1 % of Ctl |  | 19.7 % of Ctl | 75.3 % of Ctl
O=C(NCCOCCOCCNc1nc(Nc2ccc(O)cc2)nc(Nc2ccc(C(=O)NCc3ccc(F)c(F)c3)cc2)n1)c1ccccc1 [compound 129] | 8.9 % of Ctl | 45.1 % of Ctl |  |  |  | 65.6 % of Ctl | 
Cc1cccc(CNC(=O)c2ccc(Nc3nc(NCCOCCOCCNC(=O)c4ccccc4)nc(Nc4ccc(O)cc4)n3)cc2)c1 [compound 107] | 65.2 % of Ctl | 56.3 % of Ctl | 80.7 % of Ctl | 91.3 % of Ctl |  |  | 
O=C(NCc1ccccc1)c1ccc(Nc2nc(NCCOCCNC(=O)c3ccccc3C(F)(F)F)nc(Nc3ccc(O)cc3)n2)cc1 [compound 134] | 14.0 % of Ctl | 27.7 % of Ctl |  |  |  | 46.7 % of Ctl | 
COC(=O)c1cc(Nc2nc(NCCOCCOCCNC(=O)c3ccccc3)nc(Nc3ccc(C(=O)NCc4ccc(F)cc4)cc3)n2)ccc1O [compound 144] | 3.4 % of Ctl | 5.8 % of Ctl |  |  |  | 10.8 % of Ctl | 
